# Measurements taken from PubChem BioAssay (NCI).
#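 In this assay, cells in 96-well plates receive the compound at five concentrations for 48 hours. Endpoints are linearly interpolated between the surrounding concentrations. GI50 is the concentration that inhibits growth by half. TGI is the concentration that stops growth completely.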
# Legend:
# Experiment in all cases: NCI tumour cell line growth inhibition, 48 h
# MALME-3M melanoma = test system: MALME-3M melanoma
# NCI-H522 lung = test system: NCI-H522 lung
# UO-31 renal = test system: UO-31 renal
# COLO 205 colon = test system: COLO 205 colon
# MDA-MB-231 breast = test system: MDA-MB-231 breast
# SK-MEL-5 melanoma = test system: SK-MEL-5 melanoma
# SN12C renal = test system: SN12C renal
# MCF7 breast = test system: MCF7 breast
# HT29 colon = test system: HT29 colon
# HCC-2998 colon = test system: HCC-2998 colon
structure (smiles),measurement,setting,value
COC(=O)CC[C@@H](C)[C@H]1CC[C@H]2[C@@H]3CC[C@@H]4C[C@H](O)CC[C@]4(C)[C@H]3CC[C@]12C,TGI,MALME-3M melanoma,34.8 µM
same,TGI,NCI-H522 lung,46.8 µM
same,TGI,UO-31 renal,34.9 µM
same,TGI,COLO 205 colon,35.4 µM
same,TGI,MDA-MB-231 breast,34.2 µM
same,TGI,SK-MEL-5 melanoma,31 µM
same,TGI,SN12C renal,33.2 µM
same,TGI,MCF7 breast,36.3 µM
same,TGI,HT29 colon,31.9 µM
O=C(NC1CCC[C@H]1OC(=O)c1ccccc1)c1ccccc1 (some centres not stated),TGI,MALME-3M melanoma,> 100 µM
same,TGI,UO-31 renal,> 100 µM
same,TGI,SK-MEL-5 melanoma,> 100 µM
same,TGI,SN12C renal,> 100 µM
same,TGI,HT29 colon,> 100 µM
Cc1ccc(NC(=O)COc2ccc(Cl)cc2)cc1Cl,TGI,MALME-3M melanoma,> 100 µM
same,TGI,NCI-H522 lung,> 100 µM
same,TGI,UO-31 renal,> 100 µM
same,TGI,COLO 205 colon,> 100 µM
same,TGI,MDA-MB-231 breast,59.7 µM
same,TGI,SK-MEL-5 melanoma,> 100 µM
same,TGI,SN12C renal,> 100 µM
same,TGI,MCF7 breast,> 100 µM
same,TGI,HT29 colon,> 100 µM
CC(C)N1CC2CC(CN(C(=O)c3ccc(Cl)cc3)C2)C1,TGI,MALME-3M melanoma,> 100 µM
same,TGI,NCI-H522 lung,> 100 µM
same,TGI,UO-31 renal,> 100 µM
same,TGI,COLO 205 colon,> 100 µM
same,TGI,SK-MEL-5 melanoma,> 100 µM
same,TGI,SN12C renal,> 100 µM
same,TGI,HT29 colon,> 100 µM
COc1ccc(C(C2=C(O)CC(C)OC2=O)C2=C(O)CC(C)OC2=O)cc1 (configuration not stated),TGI,MALME-3M melanoma,> 100 µM
same,TGI,NCI-H522 lung,> 100 µM
same,TGI,UO-31 renal,> 100 µM
same,TGI,COLO 205 colon,> 100 µM
same,TGI,HCC-2998 colon,> 100 µM
same,TGI,SK-MEL-5 melanoma,> 100 µM
same,TGI,SN12C renal,> 100 µM
same,TGI,HT29 colon,> 100 µM
CCC(O)CCCCCCCCCCCCCCC(=O)O (configuration not stated),TGI,MALME-3M melanoma,> 100 µM
same,TGI,NCI-H522 lung,> 100 µM
same,TGI,UO-31 renal,> 100 µM
same,TGI,COLO 205 colon,> 100 µM
same,TGI,SK-MEL-5 melanoma,40.6 µM
same,TGI,SN12C renal,> 100 µM
same,TGI,HT29 colon,> 100 µM
C=CCC1(CN(C)C)CC/C(=C\c2ccc3c(c2)OCO3)C1=O (configuration not stated),TGI,MALME-3M melanoma,> 100 µM
same,TGI,NCI-H522 lung,40.2 µM
same,TGI,UO-31 renal,> 100 µM
same,TGI,COLO 205 colon,54.1 µM
same,TGI,HCC-2998 colon,> 100 µM
same,TGI,SK-MEL-5 melanoma,60.5 µM
same,TGI,SN12C renal,> 100 µM
same,TGI,HT29 colon,> 100 µM
CC1=C(CCC(C)CO)O[C@H]2C[C@H]3[C@@H]4CC[C@H]5C[C@@H](O)CC[C@]5(C)[C@H]4CC(=O)[C@]3(C)[C@@H]12 (some centres not stated),TGI,MALME-3M melanoma,57.1 µM
same,TGI,NCI-H522 lung,30.3 µM
same,TGI,UO-31 renal,33.3 µM
same,TGI,COLO 205 colon,27.7 µM
same,TGI,MDA-MB-231 breast,47.3 µM
same,TGI,SK-MEL-5 melanoma,23.5 µM
same,TGI,SN12C renal,53.2 µM
same,TGI,MCF7 breast,> 59.4 µM
same,TGI,HT29 colon,71.8 µM
O=C(CC12C3C4C1C1C2C3C41CC(=O)NO)NO (configuration not stated),TGI,MALME-3M melanoma,> 100 µM
same,TGI,NCI-H522 lung,77.4 µM
same,TGI,COLO 205 colon,> 100 µM
same,TGI,HCC-2998 colon,> 100 µM
same,TGI,SK-MEL-5 melanoma,> 100 µM
same,TGI,SN12C renal,> 100 µM
same,TGI,HT29 colon,88.7 µM
COC(=O)[C@]1(C)CCC[C@@]2(C)C3=C(CC[C@H]12)C[C@@H](CC(OC(C)=O)OC(C)=O)[C@@H](C)C3,GI50,NCI-H522 lung,> 28 µM
same,TGI,NCI-H522 lung,> 50 µM
same,GI50,UO-31 renal,10.6 µM
same,TGI,UO-31 renal,24.8 µM
same,GI50,COLO 205 colon,11 µM
same,TGI,COLO 205 colon,27.4 µM
same,GI50,HCC-2998 colon,9.32 µM
same,TGI,HCC-2998 colon,16.3 µM
same,GI50,MDA-MB-231 breast,8.81 µM
same,TGI,MDA-MB-231 breast,19.2 µM
same,GI50,SK-MEL-5 melanoma,8.4 µM
same,TGI,SK-MEL-5 melanoma,15.6 µM
same,GI50,SN12C renal,9.42 µM
same,TGI,SN12C renal,20.6 µM
same,GI50,MCF7 breast,7.99 µM
same,TGI,MCF7 breast,18.5 µM
same,GI50,HT29 colon,18 µM
same,TGI,HT29 colon,> 50 µM
NC1CC(=O)c2c(-c3cccs3)sc(-c3cccs3)c21 (configuration not stated),GI50,MALME-3M melanoma,37.8 µM
same,TGI,MALME-3M melanoma,> 100 µM
same,GI50,NCI-H522 lung,22.1 µM
same,TGI,NCI-H522 lung,87.5 µM
same,GI50,UO-31 renal,24.7 µM
same,TGI,UO-31 renal,> 100 µM
same,GI50,COLO 205 colon,21.5 µM
same,TGI,COLO 205 colon,63.8 µM
same,GI50,MDA-MB-231 breast,27.9 µM
same,TGI,MDA-MB-231 breast,> 100 µM
same,GI50,SK-MEL-5 melanoma,28 µM
same,TGI,SK-MEL-5 melanoma,> 100 µM
same,GI50,SN12C renal,24.3 µM
same,TGI,SN12C renal,69.8 µM
same,GI50,MCF7 breast,16.9 µM
same,TGI,MCF7 breast,44.4 µM
same,GI50,HT29 colon,19.5 µM
same,TGI,HT29 colon,50.1 µM
Cc1cc(OCc2ccc(C(F)(F)F)cc2)c2c(c1)C(=O)C=C(NCCN1CCCC1)C2=O,GI50,MALME-3M melanoma,2.09 µM
same,TGI,MALME-3M melanoma,3.95 µM
same,GI50,NCI-H522 lung,2.66 µM
same,TGI,NCI-H522 lung,6.05 µM
same,GI50,UO-31 renal,2.19 µM
same,TGI,UO-31 renal,4.93 µM
same,GI50,COLO 205 colon,1.9 µM
same,TGI,COLO 205 colon,3.72 µM
same,GI50,HCC-2998 colon,1.87 µM
same,TGI,HCC-2998 colon,3.46 µM
same,GI50,SK-MEL-5 melanoma,1.53 µM
same,TGI,SK-MEL-5 melanoma,2.88 µM
same,GI50,SN12C renal,9.86 µM
same,TGI,SN12C renal,28.3 µM
same,GI50,MCF7 breast,1.67 µM
same,TGI,MCF7 breast,3.56 µM
same,GI50,HT29 colon,1.94 µM
same,TGI,HT29 colon,5.01 µM
CC1(c2ccc(F)cc2)C2C(=O)NC(=O)C1C(=O)NC2=O (configuration not stated),TGI,MALME-3M melanoma,> 100 µM
same,TGI,NCI-H522 lung,> 100 µM
same,TGI,UO-31 renal,> 100 µM
same,TGI,COLO 205 colon,> 100 µM
same,TGI,HCC-2998 colon,> 100 µM
same,TGI,SK-MEL-5 melanoma,> 100 µM
same,TGI,SN12C renal,> 100 µM
same,TGI,HT29 colon,> 100 µM
CSc1ccc(N2C(=O)C3c4[nH]c5ccccc5c4C4CCC(C(C)(C)C)CC4C3C2=O)cc1 (configuration not stated),TGI,MALME-3M melanoma,42.9 µM
same,TGI,NCI-H522 lung,40.4 µM
same,TGI,UO-31 renal,40.7 µM
same,TGI,COLO 205 colon,25.2 µM
same,TGI,HCC-2998 colon,33.3 µM
same,TGI,SK-MEL-5 melanoma,58.5 µM
same,TGI,SN12C renal,35.9 µM
same,TGI,HT29 colon,> 100 µM
CCO/C=C\C12CCCC1NC(c1ccccc1)(c1ccccc1)O2 (configuration not stated),TGI,MALME-3M melanoma,54.3 µM
same,TGI,NCI-H522 lung,83.3 µM
same,TGI,UO-31 renal,73.6 µM
same,TGI,SK-MEL-5 melanoma,31.1 µM
same,TGI,SN12C renal,78.3 µM
same,TGI,HT29 colon,57.8 µM
O=C(Nc1ccc(Br)cc1)C(=O)C(C(=O)c1ccc(Cl)c(Cl)c1)C1OC(=O)c2ccccc21 (configuration not stated),TGI,MALME-3M melanoma,24.1 µM
same,TGI,NCI-H522 lung,47.9 µM
same,TGI,UO-31 renal,43.2 µM
same,TGI,COLO 205 colon,34.8 µM
same,TGI,HCC-2998 colon,29.2 µM
same,TGI,SN12C renal,68.3 µM
same,TGI,HT29 colon,45 µM
